Data on 9 cell lines can be found in the supplement of paper PMC10307832.

Experiment in all cases: relative viability (nuclei count vs DMSO), 5 days (fraction); higher = more cells survive
Compound in the test “BX 795 + Crizotinib”: O=C(NCCCNc1nc(Nc2cccc(NC(=O)N3CCCC3)c2)ncc1I)c1cccs1 [BX 795] + C[C@@H](Oc1cc(-c2cnn(C3CCNCC3)c2)cnc1N)c1c(Cl)ccc(F)c1Cl [Crizotinib] (partner 1 µM)
The method in brief:
(§1)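 Medians of duplicate plates are given as relative viability. That measure is the nuclei count in treated wells divided by the count in vehicle wells. Counts were taken on 4× images of lung cancer cell lines in 1536-well plates, 5 days after pin-tool dosing the day after seeding with one drug alone or a fixed anchor-drug dose plus five library-drug doses (not always all listed) in √10 steps.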

Compound in the test “BX 795 + Tozasertib”: O=C(NCCCNc1nc(Nc2cccc(NC(=O)N3CCCC3)c2)ncc1I)c1cccs1 [BX 795] + Cc1cc(Nc2cc(N3CCN(C)CC3)nc(Sc3ccc(NC(=O)C4CC4)cc3)n2)n[nH]1 [Tozasertib] (partner 0.1 µM)
The gist of the method:
as §1

Compound in the test “BX 795 + Linsitinib”: O=C(NCCCNc1nc(Nc2cccc(NC(=O)N3CCCC3)c2)ncc1I)c1cccs1 [BX 795] + C[C@]1(O)C[C@@H](c2nc(-c3ccc4ccc(-c5ccccc5)nc4c3)c3c(N)nccn32)C1 [Linsitinib] (partner 1 µM)
The gist of the method: as §1

Compound in the test “BX 795 + Vorinostat”: O=C(NCCCNc1nc(Nc2cccc(NC(=O)N3CCCC3)c2)ncc1I)c1cccs1 [BX 795] + O=C(CCCCCCC(=O)Nc1ccccc1)NO [Vorinostat] (partner 1 µM)
The method in brief:
as §1

Compound in the test “BX 795 + AZD7762”: O=C(NCCCNc1nc(Nc2cccc(NC(=O)N3CCCC3)c2)ncc1I)c1cccs1 [BX 795] + NC(=O)Nc1cc(-c2cccc(F)c2)sc1C(=O)N[C@H]1CCCNC1 [AZD7762] (partner 0.2 µM)
The gist of the method: as §1

Take NCI-H520: the relative viability with BX 795 + Crizotinib (first compound 0.04 µM) is 0.662; in the test with BX 795 + Crizotinib (first compound 0.1265 µM) it was 0.571; in the test with BX 795 + Crizotinib (first compound 0.4 µM), 0.443; with BX 795 + Crizotinib (first compound 1.265 µM), 0.249; with BX 795 + Tozasertib (first compound 0.04 µM), 0.44; in the test with BX 795 + Tozasertib (first compound 0.1265 µM) it was 0.447. Besides, the relative viability with BX 795 + Tozasertib (first compound 0.4 µM) was determined as 0.421; with BX 795 + Tozasertib (first compound 1.265 µM) it was 0.401; with BX 795 + Linsitinib (first compound 0.04 µM), 0.746; with BX 795 + Linsitinib (first compound 0.1265 µM), 1.06; with BX 795 + Linsitinib (first compound 0.4 µM), 0.859; with BX 795 + Linsitinib (first compound 1.265 µM) it was 0.359. In addition, the relative viability with BX 795 + Vorinostat (first compound 0.04 µM) was determined as 0.69; with BX 795 + Vorinostat (first compound 0.1265 µM) it was 0.721; with BX 795 + Vorinostat (first compound 0.4 µM), 0.768; with BX 795 + Vorinostat (first compound 1.265 µM), 0.381.
As to NCI-H522, the relative viability with BX 795 + AZD7762 (first compound 0.04 µM) was 0.716; with BX 795 + AZD7762 (first compound 0.1265 µM) it was 0.811; in the test with BX 795 + AZD7762 (first compound 0.4 µM) it was 0.777; with BX 795 + AZD7762 (first compound 1.265 µM), 0.785; with BX 795 + Tozasertib (first compound 0.04 µM), 0.57; with BX 795 + Tozasertib (first compound 0.1265 µM), 0.603. Besides, the relative viability came out at 0.544 with BX 795 + Tozasertib (first compound 0.4 µM); 0.569 with BX 795 + Tozasertib (first compound 1.265 µM); 0.9 in the test with BX 795 + Vorinostat (first compound 0.04 µM); 0.864 with BX 795 + Vorinostat (first compound 0.1265 µM); 0.875 with BX 795 + Vorinostat (first compound 0.4 µM); 0.72 with BX 795 + Vorinostat (first compound 1.265 µM).
For the cell line NCI-H661, the relative viability is 1.06 in the test with BX 795 + Crizotinib (first compound 0.04 µM); 1.02 with BX 795 + Crizotinib (first compound 0.1265 µM); 1.12 with BX 795 + Crizotinib (first compound 0.4 µM); 0.865 with BX 795 + Crizotinib (first compound 1.265 µM); 0.374 with BX 795 + Tozasertib (first compound 0.04 µM); 0.369 with BX 795 + Tozasertib (first compound 0.1265 µM). The relative viability was 0.378 with BX 795 + Tozasertib (first compound 0.4 µM); 0.412 with BX 795 + Tozasertib (first compound 1.265 µM); 0.615 with BX 795 + Linsitinib (first compound 0.04 µM); 0.641 with BX 795 + Linsitinib (first compound 0.1265 µM); 0.34 in the test with BX 795 + Linsitinib (first compound 0.4 µM); 0.433 in the test with BX 795 + Linsitinib (first compound 1.265 µM). Also, the relative viability in the test with BX 795 + Vorinostat (first compound 0.04 µM) is 0.824; with BX 795 + Vorinostat (first compound 0.1265 µM), 0.862; in the test with BX 795 + Vorinostat (first compound 0.4 µM), 0.832; in the test with BX 795 + Vorinostat (first compound 1.265 µM), 0.449.
In the case of NCI-H1395, the relative viability turned out to be 0.375 with BX 795 + AZD7762 (first compound 0.04 µM); 0.427 with BX 795 + AZD7762 (first compound 0.1265 µM); 0.39 with BX 795 + AZD7762 (first compound 0.4 µM); 0.381 in the test with BX 795 + AZD7762 (first compound 1.265 µM); 0.698 in the test with BX 795 + Tozasertib (first compound 0.04 µM); 0.721 in the test with BX 795 + Tozasertib (first compound 0.1265 µM). For the same cell line, the relative viability was determined as 0.601 in the test with BX 795 + Tozasertib (first compound 0.4 µM); 0.72 in the test with BX 795 + Tozasertib (first compound 1.265 µM); 1.1 in the test with BX 795 + Linsitinib (first compound 0.04 µM); 0.957 with BX 795 + Linsitinib (first compound 0.1265 µM); 0.611 in the test with BX 795 + Linsitinib (first compound 0.4 µM); 0.786 with BX 795 + Linsitinib (first compound 1.265 µM). The relative viability with BX 795 + Vorinostat (first compound 0.04 µM) is 0.574; in the test with BX 795 + Vorinostat (first compound 0.1265 µM), 0.624; in the test with BX 795 + Vorinostat (first compound 0.4 µM), 0.404; with BX 795 + Vorinostat (first compound 1.265 µM), 0.516.
With NCI-H1563, the relative viability is 0.852 with BX 795 + Crizotinib (first compound 0.04 µM); 0.849 in the test with BX 795 + Crizotinib (first compound 0.1265 µM); 0.82 with BX 795 + Crizotinib (first compound 0.4 µM); 0.617 with BX 795 + Crizotinib (first compound 1.265 µM); 1.36 with BX 795 + Linsitinib (first compound 0.04 µM); 1.23 with BX 795 + Linsitinib (first compound 0.1265 µM). Also, the results for the relative viability with BX 795 + Linsitinib (first compound 0.4 µM) and with BX 795 + Linsitinib (first compound 1.265 µM) were 1.3 and 0.905, respectively.
Take NCI-H1650: the relative viability with BX 795 + Crizotinib (first compound 0.04 µM) stood at 0.98; with BX 795 + Crizotinib (first compound 0.1265 µM), 0.969; with BX 795 + Crizotinib (first compound 0.4 µM) it was 0.786; with BX 795 + Crizotinib (first compound 1.265 µM), 0.591; in the test with BX 795 + Tozasertib (first compound 0.04 µM) it was 0.548; in the test with BX 795 + Tozasertib (first compound 0.1265 µM), 0.425. For the same cell line, the relative viability is 0.377 with BX 795 + Tozasertib (first compound 0.4 µM); 0.25 with BX 795 + Tozasertib (first compound 1.265 µM); 0.593 with BX 795 + Vorinostat (first compound 0.04 µM); 0.486 with BX 795 + Vorinostat (first compound 0.1265 µM); 0.528 in the test with BX 795 + Vorinostat (first compound 0.4 µM); 0.369 with BX 795 + Vorinostat (first compound 1.265 µM).
Regarding NCI-H1792, the relative viability with BX 795 + Crizotinib (first compound 0.04 µM) amounted to 1.01; with BX 795 + Crizotinib (first compound 0.1265 µM) it was 1.08; with BX 795 + Crizotinib (first compound 0.4 µM), 1.09; with BX 795 + Crizotinib (first compound 1.265 µM), 0.892; in the test with BX 795 + AZD7762 (first compound 0.04 µM), 0.616; with BX 795 + AZD7762 (first compound 0.4 µM), 0.696. The relative viability was determined as 0.576 in the test with BX 795 + AZD7762 (first compound 1.265 µM); 0.559 in the test with BX 795 + Linsitinib (first compound 0.04 µM); 0.673 with BX 795 + Linsitinib (first compound 0.1265 µM); 0.461 with BX 795 + Linsitinib (first compound 0.4 µM); 0.424 with BX 795 + Linsitinib (first compound 1.265 µM).
Take NCI-H1793: the relative viability in the test with BX 795 + AZD7762 (first compound 0.04 µM) came out at 0.425; with BX 795 + AZD7762 (first compound 0.1265 µM) it was 0.447; in the test with BX 795 + AZD7762 (first compound 0.4 µM), 0.484; with BX 795 + AZD7762 (first compound 1.265 µM), 0.487; with BX 795 + Tozasertib (first compound 0.04 µM), 0.372; with BX 795 + Tozasertib (first compound 0.1265 µM), 0.326. Also, the relative viability is 0.375 with BX 795 + Tozasertib (first compound 0.4 µM); 0.213 with BX 795 + Tozasertib (first compound 1.265 µM); 0.874 in the test with BX 795 + Linsitinib (first compound 0.04 µM); 1.06 with BX 795 + Linsitinib (first compound 0.1265 µM); 1.01 in the test with BX 795 + Linsitinib (first compound 0.4 µM); 0.507 with BX 795 + Linsitinib (first compound 1.265 µM). In addition, the relative viability with BX 795 + Vorinostat (first compound 0.04 µM) amounted to 0.888; with BX 795 + Vorinostat (first compound 0.1265 µM), 0.753; with BX 795 + Vorinostat (first compound 0.4 µM) it was 0.803; in the test with BX 795 + Vorinostat (first compound 1.265 µM), 0.293.
For NCI-H2009, the relative viability with BX 795 + Crizotinib (first compound 0.04 µM) amounted to 1.02; in the test with BX 795 + Crizotinib (first compound 0.1265 µM), 0.972; with BX 795 + Crizotinib (first compound 0.4 µM), 0.874; with BX 795 + Crizotinib (first compound 1.265 µM), 0.645; with BX 795 + Tozasertib (first compound 0.04 µM), 0.705; with BX 795 + Tozasertib (first compound 0.1265 µM), 0.714. Further, the relative viability with BX 795 + Tozasertib (first compound 0.4 µM) came to 0.678; with BX 795 + Tozasertib (first compound 1.265 µM) it was 0.381; with BX 795 + Linsitinib (first compound 0.04 µM), 1.27; with BX 795 + Linsitinib (first compound 0.1265 µM) it was 1.19; in the test with BX 795 + Linsitinib (first compound 0.4 µM) it was 1.19; in the test with BX 795 + Linsitinib (first compound 1.265 µM), 0.871. For the same cell line, the relative viability with BX 795 + Vorinostat (first compound 0.04 µM) was determined as 0.731; with BX 795 + Vorinostat (first compound 0.1265 µM), 0.67; with BX 795 + Vorinostat (first compound 0.4 µM) it was 0.818; with BX 795 + Vorinostat (first compound 1.265 µM), 0.591.
